Source: patent US20250067753A1, “Protein array-based in vitro transglutaminase assay platform for epitope mapping and immunogen design” (priority 2021, published 2025)

Assays:
[1] = target: T1, guinea pig liver tissue transglutaminase (UniProt P08587); assay: Onchip in vitro TG2 assay (dansyl-cadaverine incorporation on peptide microchip); format: biochemical; conditions: 100 μg/ml TG2, 3 mM dansyl-cadaverine, 5 mM Calcium Chloride, 37 degree, 30 minutes; anti-dansyl antibody/Alexa Fluor 594 readout
T1 construct: guinea pig liver tissue transglutaminase (Sigma); purchased Sigma; host or cells: guinea pig liver (as named)
T1 sequence (P08587 1-690): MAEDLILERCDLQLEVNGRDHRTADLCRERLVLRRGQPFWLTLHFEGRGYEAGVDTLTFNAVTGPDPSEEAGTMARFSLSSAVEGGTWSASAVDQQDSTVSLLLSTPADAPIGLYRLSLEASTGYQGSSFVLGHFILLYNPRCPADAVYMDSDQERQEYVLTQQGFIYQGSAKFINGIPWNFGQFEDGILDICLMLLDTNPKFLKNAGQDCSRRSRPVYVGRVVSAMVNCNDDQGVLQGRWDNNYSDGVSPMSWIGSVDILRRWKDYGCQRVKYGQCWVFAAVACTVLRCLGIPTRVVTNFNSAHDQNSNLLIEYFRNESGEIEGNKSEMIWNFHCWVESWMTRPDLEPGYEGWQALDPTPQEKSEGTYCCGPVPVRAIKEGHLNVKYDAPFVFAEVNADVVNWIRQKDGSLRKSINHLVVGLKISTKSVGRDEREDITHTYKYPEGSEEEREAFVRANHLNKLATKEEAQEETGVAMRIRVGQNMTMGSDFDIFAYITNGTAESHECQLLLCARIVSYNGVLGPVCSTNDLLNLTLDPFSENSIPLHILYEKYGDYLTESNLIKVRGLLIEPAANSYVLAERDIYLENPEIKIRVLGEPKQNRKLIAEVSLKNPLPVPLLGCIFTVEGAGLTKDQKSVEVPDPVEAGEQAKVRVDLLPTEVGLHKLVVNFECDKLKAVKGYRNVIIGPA
Experimental: To identify the glutamine residues that can be modified by tissue transglutaminase on the peptide microchip, the synthesized peptide microchip was incubated with 100 μg/ml guinea pig liver tissue transglutaminase (Sigma) and 3 mM dansyl-cadaverine (Sigma) in 1 ml of TBS containing 5 mM Calcium Chloride and 1 mM DTT at 37 degree for 30 minutes. Afterwards, the peptide chip was washed at least 3 times with TBS. After washing off tissue transglutaminase and dansyl-cadaverine molecules […] the synthesized peptides, the dansyl-cadaverine conjugated on the chip was tracked by rabbit anti-dansyl antibody (Invitrogen) followed by Alexa Fluor 594-labeled anti-rabbit secondary antibody (Invitrogen). Fluorescent microchip figures were quantified and analyzed with ArrayPro32. Original array figures and data are available upon request.
To characterize the glutamine-bearing TG2 modification motifs on these synthesized peptides, dansyl-cadaverine, a well-established amine donor in transglutaminase reaction, was covalently conjugated to the glutamine residues on the peptide chip by purified TG2 with the help of calcium (FIG. 1A). […] In this way the level of dansyl-cadaverine incorporation on a certain peptide was measured by the fluorescent intensity. […]

transglutaminase = conditions: as amine acceptor; Parameswaran, Velasco et al. 1990; cited from earlier work

Substance: QQIV
- fluorescent intensity (level of dansyl-cadaverine incorporation) [1]: ~5000
- competitive inhibitor for the transglutaminase reaction (transglutaminase): effective competitive inhibitor
